In US9796711B2, “Substituted pyrazolo[3,4-b]pyridin-6-carboxylic acids and method of use” (AbbVie S.àr.l., priority 2015, dated 2017):
Where two headings read alike, the source gives them in different places.

Molecular target: T1, CFTR ΔF508 (Homo sapiens, UniProt P13569, DEL508-508)
T1 construct: bronchial epithelial cells isolated from CF patients homozygous for the CFTR ΔF508 mutation; McGill University; Asterand; University of North Carolina hAEC-CF; host or cells: primary human bronchial epithelial cells from CF patients homozygous for ΔF508
T1 sequence (P13569 with tags, fused parts or gaps DEL508-508): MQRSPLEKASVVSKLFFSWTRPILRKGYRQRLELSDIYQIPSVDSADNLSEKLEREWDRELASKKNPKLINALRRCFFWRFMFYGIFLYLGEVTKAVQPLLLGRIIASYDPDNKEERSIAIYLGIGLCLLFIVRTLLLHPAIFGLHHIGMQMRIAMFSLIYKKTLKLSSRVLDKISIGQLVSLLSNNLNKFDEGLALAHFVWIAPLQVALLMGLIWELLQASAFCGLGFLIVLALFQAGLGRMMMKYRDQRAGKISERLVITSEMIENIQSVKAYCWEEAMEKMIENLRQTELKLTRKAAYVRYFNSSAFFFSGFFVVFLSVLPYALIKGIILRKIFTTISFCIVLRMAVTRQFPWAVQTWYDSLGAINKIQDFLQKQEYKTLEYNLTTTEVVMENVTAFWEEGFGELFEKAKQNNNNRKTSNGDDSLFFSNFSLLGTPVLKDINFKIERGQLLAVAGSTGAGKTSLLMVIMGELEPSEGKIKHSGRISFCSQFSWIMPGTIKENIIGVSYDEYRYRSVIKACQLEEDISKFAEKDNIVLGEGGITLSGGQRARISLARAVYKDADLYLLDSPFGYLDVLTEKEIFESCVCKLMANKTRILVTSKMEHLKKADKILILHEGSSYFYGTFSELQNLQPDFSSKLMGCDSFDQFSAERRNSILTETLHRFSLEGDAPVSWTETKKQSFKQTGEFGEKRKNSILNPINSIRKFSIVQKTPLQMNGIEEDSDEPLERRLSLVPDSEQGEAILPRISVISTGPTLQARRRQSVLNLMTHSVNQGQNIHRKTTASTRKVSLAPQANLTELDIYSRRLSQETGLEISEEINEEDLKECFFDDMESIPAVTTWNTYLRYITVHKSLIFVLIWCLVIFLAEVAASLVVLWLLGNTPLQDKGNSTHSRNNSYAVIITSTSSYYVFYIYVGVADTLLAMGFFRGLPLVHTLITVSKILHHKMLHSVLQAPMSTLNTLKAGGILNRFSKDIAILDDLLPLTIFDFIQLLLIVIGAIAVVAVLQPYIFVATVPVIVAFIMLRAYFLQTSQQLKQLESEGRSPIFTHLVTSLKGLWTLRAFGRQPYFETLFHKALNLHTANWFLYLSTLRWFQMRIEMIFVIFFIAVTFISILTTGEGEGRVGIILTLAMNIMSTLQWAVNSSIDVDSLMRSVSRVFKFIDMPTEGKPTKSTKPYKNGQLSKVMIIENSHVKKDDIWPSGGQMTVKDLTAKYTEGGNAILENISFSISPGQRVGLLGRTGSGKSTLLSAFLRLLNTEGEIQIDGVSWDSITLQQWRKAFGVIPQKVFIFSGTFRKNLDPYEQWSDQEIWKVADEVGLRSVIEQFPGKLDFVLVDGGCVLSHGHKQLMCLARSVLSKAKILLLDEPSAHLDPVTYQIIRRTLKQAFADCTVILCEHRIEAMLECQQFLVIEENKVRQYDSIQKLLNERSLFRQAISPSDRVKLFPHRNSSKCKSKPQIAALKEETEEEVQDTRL
Assay: Chronic TECC assay on primary bronchial epithelial cells (corrector, co-corrector and potentiator)
Assay type: cell-based
Settings: chronic TECC, with co-corrector and potentiator, 24 hours
Protocol: Primary Bronchial Epithelial Cells Protocol
The TECC (Tranepithelial Clamp Circuit, EP-design) assay measures the functionality of the cystic fibrosis Transmembrane Conductance regulator (CFTR) by measuring the short circuit current (Isc) generated over the basolateral and apical membrane of lung epithelial cells. In TECC the transepithelial potential PD and transepithelial resistance (Rt)) are measured in an open circuit and transformed to Ieq using Ohm's law. 24 Wells can be measured simultaneously allowing a higher throughput compared to Ussing chambers.
For this purpose, bronchial epithelial cells isolated from CF patients homozygous for the CFTR ΔF508 mutation (hAEC-CF, Epithelix, Geneva, Switzerland; McGill University, Montreal, Qc; Asterand, Detroit, Mich.; University of North Carolina, Chapel Hill, N.C.) are plated on type IV collagen-coated Transwell® supports (Costar). Human airway epithelia are generated by provision of an air-liquid interface for 21 days to form well-differentiated polarized cultures that resemble in vivo pseudo-stratified ciliated epithelium (Fulcher, M. L., Gabriel, S., Burns, K. A., Yankaskas, J. R., Randell, S. H., 2005. Well-differentiated human airway epithelial cell cultures. Methods Mol. Med. 107, 183-206). The differentiated cells are treated with test corrector compound(s) (corrector alone or in combination with co-corrector, 4-[(2R,4R)-4-({[1-(2,2-difluoro-1,3-benzodioxol-5-yl)cyclopropyl]carbonyl}amino)-7-methoxy-3,4-dihydro-2H-chromen-2-yl]benzoic acid (G924806/A-1618261) (“acute”) or test corrector compounds, co-corrector and potentiator, N-(3-carbamoyl-5,5,7,7-tetramethyl-4,7-dihydro-5H-thieno[2,3-c]pyran-2-yl)-1H-pyrazole-5-carboxamide GLPG1837, (“chronic”) for 24 hours basolaterally to allow sufficient expression of properly folded CFTR protein on the membrane. All compound plates contained negative controls (DMSO) and positive controls (0.15 μM, 4-[(2R,4R)-4-({[1-(2,2-difluoro-1,3-benzodioxol-5-yl)cyclopropyl]carbonyl}amino)-7-(difluoromethoxy)-3,4-dihydro-2H-chromen-2-yl]benzoic acid).
For electrophysiological recording of the “chronic” experiments, the human airway epithelia are mounted in the TECC heating plate for electrophysiological measurement and kept at 37° C. The epithelia are bathed in a NaCl-Ringer solution (120 mM NaCl, 25 mM NaHCO3, 1.2 mM CaCl2, 1.2 mM MgCl2, 0.8 mM KH2PO4, 0.8 mM K2HPO4, pH 7.4, 5 mM glucose) on both the basolateral and apical sides. Test compounds (corrector, co-corrector, 4-[(2R,4R)-4-({[1-(2,2-difluoro-1,3-benzodioxol-5-yl)cyclopropyl]carbonyl}amino)-7-(difluoromethoxy)-3,4-dihydro-2H-chromen-2-yl]benzoic acid, and potentiator, N-(3-carbamoyl-5,5,7,7-tetramethyl-4,7-dihydro-5H-thieno[2,3-c]pyran-2-yl)-1H-pyrazole-5-carboxamide), are re-added to the recording solution prior to measurement. Apical amiloride is used to inhibit the endogenous ENaC currents while forskolin is applied on both apical and basolateral side to stimulate CFTR. Measurements are done during a 20 minute timeframe with recordings every 2 minutes. The increase in Ieq is used as a measure for the increased CFTR activity, EC50 values can be generated by measuring impact of different concentrations of compound on Ieq on primary cells, for this purpose each transwell is treated with a different compound concentration. Inhibitor-172, an inhibitor specific for CFTR, is used to test the specificity of the tested compounds. Raw data were normalized to percentage activity values using the equation: 100×(Sample−Negative control)/(Positive control−Negative Control).

[1] = AUC = full area under the curve upon forskolin stimulation
[2] = AUC = full area under the curve upon forskolin stimulation, read-out: EC50 (nM) (AUC)
[3] = Ieq = calculations based on the maximum current
[4] = Ieq = calculations based on the maximum current, read-out: EC50 (nM) (Ieq)

O=C(O)c1cc(N2CCC3(CC2)CCN(C2CC2)CC3)c2c(C3CCC3)nn(-c3ccc(F)cc3)c2n1 [compound 887, 3-cyclobutyl-4-(9-cyclopropyl-3,9-diazaspiro[5.5]undecan-3-yl)-1-(4-fluorophenyl)-1H-pyrazolo[3,4-b]pyridine-6-carboxylic acid]
% Activity at 1 μM (AUC**) [1]: 273.3871%
EC50 [2]: 1340 nM

O=C(O)c1cc(N2CCC(N3CCCCC3)CC2)c2c(C3CCC3)nn(-c3ccccc3)c2n1 [compound 576, 4-([1,4′-bipiperidin]-1′-yl)-3-cyclobutyl-1-phenyl-1H-pyrazolo[3,4-b]pyridine-6-carboxylic acid]
% Activity at 1 μM (AUC**) [1]: 183%

O=C(O)c1cc(N2CCC(N3CCOCC3)CC2)c2c(C3CCC3)nn(-c3ccc(F)cc3)c2n1 [compound 679, 3-cyclobutyl-1-(4-fluorophenyl)-4-[4-(morpholin-4-yl)piperidin-1-yl]-1H-pyrazolo[3,4-b]pyridine-6-carboxylic acid]
% Activity at 1 μM (AUC**) [1]: 373.3333%
EC50 [2]: 28 nM

CC(C)Oc1nn(C2CCCCC2)c2nc(C(=O)O)cc(-c3ccc(CN4CC(N(C)C)C4)cc3)c12 [compound 927, 1-cyclohexyl-4-(4-{[3-(dimethylamino)azetidin-1-yl]methyl}phenyl)-3-[(propan-2-yl)oxy]-1H-pyrazolo[3,4-b]pyridine-6-carboxylic acid]
EC50 [2]: 1940 nM

CC(C)c1nn(-c2ccnc(N3CCOCC3)c2)c2nc(C(=O)O)cc(-c3ccc(N4CCOCC4)cc3)c12 [compound 201, 4-[4-(morpholin-4-yl)phenyl]-1-[2-(morpholin-4-yl)pyridin-4-yl]-3-(propan-2-yl)-1H-pyrazolo[3,4-b]pyridine-6-carboxylic acid]
% Activity at 1 μM (AUC**) [1]: 254%
EC50 [2]: < 30 nM

O=C(O)c1cc(N2CCC(N3CCN(C4CC4)CC3)CC2)c2c(C3CCC3)nn(-c3ccc(F)cc3)c2n1 [compound 886, 3-cyclobutyl-4-[4-(4-cyclopropylpiperazin-1-yl)piperidin-1-yl]-1-(4-fluorophenyl)-1H-pyrazolo[3,4-b]pyridine-6-carboxylic acid]
% Activity at 1 μM (AUC**) [1]: 282.5409%

CC(C)Oc1cccc(-n2nc(C3CCC3)c3c(N4CCC(N5CCOCC5)CC4)cc(C(=O)O)nc32)n1 [compound 924, 3-cyclobutyl-4-[4-(morpholin-4-yl)piperidin-1-yl]-1-{6-[(propan-2-yl)oxy]pyridin-2-yl}-1H-pyrazolo[3,4-b]pyridine-6-carboxylic acid]
% Activity at 3 μM (AUC) [1]: 235.9027%
EC50 [2]: 10.6 nM

CC(C1CCN(c2cc(C(=O)O)nc3c2c(C2CCC2)nn3-c2ccccc2)CC1)N1CCOCC1 (stereo not shown) [compound 683, 3-cyclobutyl-4-{4-[1-(morpholin-4-yl)ethyl]piperidin-1-yl}-1-phenyl-1H-pyrazolo[3,4-b]pyridine-6-carboxylic acid]
% Activity at 1 μM (AUC**) [1]: 196.675%

COCCC1CCN(c2cc(C(=O)O)nc3c2c(C(C)C)nn3-c2cccc(C)c2)CC1 [compound 228, 4-[4-(2-methoxyethyl)piperidin-1-yl]-1-(3-methylphenyl)-3-(propan-2-yl)-1H-pyrazolo[3,4-b]pyridine-6-carboxylic acid]
% Activity at 1 μM (Ieq*) [3]: 280%
EC50 [4]: < 30 nM

CO[C@H]1CCC[C@@H](n2nc(C(C)C)c3c(-c4ccc(N5CCOCC5)cc4)cc(C(=O)O)nc32)C1 [compound 205, 1-[(1R,3S)-3-methoxycyclohexyl]-4-[4-(morpholin-4-yl)phenyl]-3-(propan-2-yl)-1H-pyrazolo[3,4-b]pyridine-6-carboxylic acid]
% Activity at 1 μM (Ieq*) [3]: 140%
EC50 [4]: > 1000 nM

CC(C)c1nn(-c2ccc(F)cc2)c2nc(C(=O)O)cc(N3CCC(C(C)N4CCCC4)CC3)c12 (stereo not shown) [compound 789, 1-(4-fluorophenyl)-3-(propan-2-yl)-4-{4-[1-(pyrrolidin-1-yl)ethyl]piperidin-1-yl}-1H-pyrazolo[3,4-b]pyridine-6-carboxylic acid]
% Activity at 1 μM (AUC**) [1]: 235%

CC(C)OC(=O)N1CC[C@@H]2CN(c3cc(C(=O)O)nc4c3c(C3CCC3)nn4-c3ccccc3)CC[C@@H]21 (racemic) [compound 610, rac-3-cyclobutyl-1-phenyl-4-[(3aR,7aS)-1-{[(propan-2-yl)oxy]carbonyl}octahydro-5H-pyrrolo[3,2-c]pyridin-5-yl]-1H-pyrazolo[3,4-b]pyridine-6-carboxylic acid]
% Activity at 1 μM (AUC**) [1]: 471%

CC(F)(F)c1cccc(-n2nc(C3CCC3)c3c(N4CCC(N5CCOCC5)CC4)cc(C(=O)O)nc32)c1 [compound 915]
% Activity at 3 μM (AUC) [1]: 423.3333%

CC(C)c1nn(-c2cccc(N3CCOCC3)c2)c2nc(C(=O)O)cc(-c3cnc(N4CCC(C#N)CC4)nc3)c12 [compound 204, 4-[2-(4-cyanopiperidin-1-yl)pyrimidin-5-yl]-1-[3-(morpholin-4-yl)phenyl]-3-(propan-2-yl)-1H-pyrazolo[3,4-b]pyridine-6-carboxylic acid]
% Activity at 1 μM (Ieq*) [3]: 241%
EC50 [4]: < 30 nM

CC1CCN(CCC2CCN(c3cc(C(=O)O)nc4c3c(C3CCC3)nn4-c3ccccc3)CC2)CC1 [compound 687, 3-cyclobutyl-4-{4-[2-(4-methylpiperidin-1-yl)ethyl]piperidin-1-yl}-1-phenyl-1H-pyrazolo[3,4-b]pyridine-6-carboxylic acid]
% Activity at 1 μM (AUC**) [1]: 263.3333%
EC50 [2]: 53.5 nM

O=C(O)c1cc(N2CCC(N3CCN(C4CC4)CC3)CC2)c2c(C3CCC3)nn(-c3ccccc3)c2n1 [compound 738, 3-cyclobutyl-4-[4-(4-cyclopropylpiperazin-1-yl)piperidin-1-yl]-1-phenyl-1H-pyrazolo[3,4-b]pyridine-6-carboxylic acid]
% Activity at 1 μM (AUC**) [1]: 230%
EC50 [2]: 23 nM

CC(C)N1CCC2(CCN(c3cc(C(=O)O)nc4c3c(C3CCC3)nn4-c3ccc(F)cc3)CC2)CC1 [compound 890, 3-cyclobutyl-1-(4-fluorophenyl)-4-[9-(propan-2-yl)-3,9-diazaspiro[5.5]undecan-3-yl]-1H-pyrazolo[3,4-b]pyridine-6-carboxylic acid]
% Activity at 1 μM (AUC**) [1]: 366.6667%

CC(C)c1nn(-c2cc(F)cc(F)c2)c2nc(C(=O)O)cc(-c3ccc(N4CCOCC4)cc3)c12 [compound 268, 1-(3,5-difluorophenyl)-4-[4-(morpholin-4-yl)phenyl]-3-(propan-2-yl)-1H-pyrazolo[3,4-b]pyridine-6-carboxylic acid]
% Activity at 1 μM (Ieq*) [3]: 267%
EC50 [4]: 25 nM

O=C(O)c1cc(N2CCC(CCN3CCOCC3)CC2)c2c(C3CCC3)nn(-c3ccc(F)cc3)c2n1 [compound 810, 3-cyclobutyl-1-(4-fluorophenyl)-4-{4-[2-(morpholin-4-yl)ethyl]piperidin-1-yl}-1H-pyrazolo[3,4-b]pyridine-6-carboxylic acid]
% Activity at 1 μM (AUC**) [1]: 191.4768%

Cc1cccc(-n2nc(C(C)C)c3c(N4CCC(C#N)CC4)cc(C(=O)O)nc32)c1 [compound 191, 4-(4-cyanopiperidin-1-yl)-1-(3-methylphenyl)-3-(propan-2-yl)-1H-pyrazolo[3,4-b]pyridine-6-carboxylic acid]
% Activity at 1 μM (Ieq*) [3]: 220%
EC50 [4]: 50 nM
